The values that follow come from ChEMBL document CHEMBL5352476, “A comprehensive overview of Artemisinin and its derivatives as anticancer agents” (Eur J Med Chem, 2023).

In this assay the test system is SK-MEL3. Kind of assay: Antiproliferative activity against human SK-MEL3 cells assessed as inhibition of cell growth incubated for 24 hrs by MTT assay. The assay is classed as functional, cell-based. The settings on record: SK-MEL3, 24 h. In general terms: Tetrazolium assays rely on reduction of a dye to a coloured formazan, in cell work by metabolically active cells.

Broadly, the IC50 is the point on the concentration scale where inhibition reaches its midpoint. For `COc1cc(/C=C\C(=O)CC(=O)/C=C\c2ccc(OC(=O)O[C@@H]3O[C@@H]4O[C@@]5(C)CC[C@H]6[C@H](C)CC[C@@H]([C@H]3C)[C@@]46OO5)c(OC)c2)ccc1OC(=O)CCC(=O)O[C@@H]1O[C@@H]2O[C@@]3(C)CC[C@H]4[C@H](C)CC[C@@H]([C@H]1C)[C@@]24OO3`, the IC50 stood at 3 µM.
